# PubChem BioAssay (NCI)
#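 Five concentrations, 48 hours, 96-well plates. TGI: total growth inhibition.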
# Key:
# Assay in all cases: NCI tumour cell line growth inhibition, 48 h
# SK-MEL-28 melanoma = test system: SK-MEL-28 melanoma
# KM12 colon = test system: KM12 colon
# M14 melanoma = test system: M14 melanoma
# SNB-19 CNS = test system: SNB-19 CNS
# SF-539 CNS = test system: SF-539 CNS
# OVCAR-8 ovarian = test system: OVCAR-8 ovarian
# SF-268 CNS = test system: SF-268 CNS
# RPMI-8226 leukemia = test system: RPMI-8226 leukemia
# SNB-75 CNS = test system: SNB-75 CNS
# COLO 205 colon = test system: COLO 205 colon
# MDA-MB-231 breast = test system: MDA-MB-231 breast
# SR leukemia = test system: SR leukemia
# IGROV1 ovarian = test system: IGROV1 ovarian
# SK-OV-3 ovarian = test system: SK-OV-3 ovarian
# PC-3 prostate = test system: PC-3 prostate
# 786-0 renal = test system: 786-0 renal
# U251 CNS = test system: U251 CNS
# HCT-116 colon = test system: HCT-116 colon
# HT29 colon = test system: HT29 colon
# NCI-H460 lung = test system: NCI-H460 lung
# NCI-H522 lung = test system: NCI-H522 lung
# HS 578T breast = test system: HS 578T breast
# UO-31 renal = test system: UO-31 renal
# HCC-2998 colon = test system: HCC-2998 colon
# EKVX NSCLC = test system: EKVX NSCLC
# OVCAR-4 ovarian = test system: OVCAR-4 ovarian
# MDA-MB-435 = test system: MDA-MB-435
# SW-620 colon = test system: SW-620 colon
# HL-60(TB) leukemia = test system: HL-60(TB) leukemia
# MCF7 breast = test system: MCF7 breast
# NCI/ADR-RES ovarian = test system: NCI/ADR-RES ovarian
# ACHN renal = test system: ACHN renal
# OVCAR-5 ovarian = test system: OVCAR-5 ovarian
# SN12C renal = test system: SN12C renal
# SF-295 CNS = test system: SF-295 CNS
# UACC-257 melanoma = test system: UACC-257 melanoma
# A549 NSCLC = test system: A549 NSCLC
# MOLT-4 leukemia = test system: MOLT-4 leukemia
# HOP-62 NSCLC = test system: HOP-62 NSCLC
# CCRF-CEM leukemia = test system: CCRF-CEM leukemia
# HCT-15 colon = test system: HCT-15 colon
# SK-MEL-5 melanoma = test system: SK-MEL-5 melanoma
# TK-10 renal = test system: TK-10 renal
# T-47D breast = test system: T-47D breast
# MDA-N = test system: MDA-N
# MALME-3M melanoma = test system: MALME-3M melanoma
# OVCAR-3 ovarian = test system: OVCAR-3 ovarian
# LOX IMVI melanoma = test system: LOX IMVI melanoma
# SK-MEL-2 melanoma = test system: SK-MEL-2 melanoma
# BT-549 breast = test system: BT-549 breast
# CAKI-1 renal = test system: CAKI-1 renal
# DU-145 prostate = test system: DU-145 prostate
# RXF 393 renal = test system: RXF 393 renal
# UACC-62 melanoma = test system: UACC-62 melanoma
# NCI-H23 lung = test system: NCI-H23 lung
# A498 renal = test system: A498 renal
# NCI-H226 lung = test system: NCI-H226 lung
# HOP-92 NSCLC = test system: HOP-92 NSCLC
smiles,measurement,setting,value
Cn1c(-c2ccc(/C=N/NC(=S)N/N=C/c3ccc(-c4c[n+]5ccsc5n4C)cc3)cc2)c[n+]2ccsc12,TGI,SK-MEL-28 melanoma,> 100 µM
same,TGI,KM12 colon,> 100 µM
same,TGI,M14 melanoma,> 100 µM
same,TGI,SNB-19 CNS,> 100 µM
same,TGI,SF-539 CNS,> 100 µM
same,TGI,OVCAR-8 ovarian,> 100 µM
same,TGI,SF-268 CNS,> 100 µM
same,TGI,RPMI-8226 leukemia,> 100 µM
same,TGI,SNB-75 CNS,> 100 µM
same,TGI,COLO 205 colon,> 100 µM
same,TGI,MDA-MB-231 breast,> 100 µM
same,TGI,SR leukemia,> 100 µM
same,TGI,IGROV1 ovarian,> 100 µM
same,TGI,SK-OV-3 ovarian,> 100 µM
same,TGI,PC-3 prostate,> 100 µM
same,TGI,786-0 renal,> 100 µM
same,TGI,U251 CNS,> 100 µM
same,TGI,HCT-116 colon,> 100 µM
same,TGI,HT29 colon,> 100 µM
same,TGI,NCI-H460 lung,> 100 µM
same,TGI,NCI-H522 lung,> 100 µM
same,TGI,HS 578T breast,> 100 µM
same,TGI,UO-31 renal,> 100 µM
same,TGI,HCC-2998 colon,> 100 µM
same,TGI,EKVX NSCLC,> 100 µM
same,TGI,OVCAR-4 ovarian,> 100 µM
same,TGI,MDA-MB-435,> 100 µM
same,TGI,SW-620 colon,> 100 µM
same,TGI,HL-60(TB) leukemia,> 100 µM
same,TGI,MCF7 breast,> 100 µM
same,TGI,NCI/ADR-RES ovarian,> 100 µM
same,TGI,ACHN renal,> 100 µM
same,TGI,OVCAR-5 ovarian,> 100 µM
same,TGI,SN12C renal,> 100 µM
same,TGI,SF-295 CNS,> 100 µM
same,TGI,UACC-257 melanoma,> 100 µM
same,TGI,A549 NSCLC,> 100 µM
same,TGI,MOLT-4 leukemia,> 100 µM
same,TGI,HOP-62 NSCLC,> 100 µM
same,TGI,CCRF-CEM leukemia,> 100 µM
same,TGI,HCT-15 colon,> 100 µM
same,TGI,SK-MEL-5 melanoma,> 100 µM
same,TGI,TK-10 renal,> 100 µM
same,TGI,T-47D breast,> 100 µM
same,TGI,MDA-N,> 100 µM
Cc1ccc(N=Nc2c(O)ccc3ccccc23)cc1,TGI,SK-MEL-28 melanoma,> 100 µM
same,TGI,KM12 colon,> 100 µM
same,TGI,M14 melanoma,> 100 µM
same,TGI,MALME-3M melanoma,> 100 µM
same,TGI,OVCAR-3 ovarian,> 100 µM
same,TGI,SNB-19 CNS,> 100 µM
same,TGI,OVCAR-8 ovarian,> 100 µM
same,TGI,LOX IMVI melanoma,> 100 µM
same,TGI,SK-MEL-2 melanoma,> 100 µM
same,TGI,SF-268 CNS,> 100 µM
same,TGI,RPMI-8226 leukemia,> 100 µM
same,TGI,SNB-75 CNS,> 100 µM
same,TGI,BT-549 breast,> 100 µM
same,TGI,COLO 205 colon,> 100 µM
same,TGI,MDA-MB-231 breast,> 100 µM
same,TGI,SR leukemia,> 100 µM
same,TGI,CAKI-1 renal,> 100 µM
same,TGI,IGROV1 ovarian,> 100 µM
same,TGI,DU-145 prostate,> 100 µM
same,TGI,SK-OV-3 ovarian,> 100 µM
same,TGI,PC-3 prostate,> 100 µM
same,TGI,786-0 renal,> 100 µM
same,TGI,U251 CNS,> 100 µM
same,TGI,HCT-116 colon,> 100 µM
same,TGI,HT29 colon,> 100 µM
same,TGI,NCI-H522 lung,> 100 µM
same,TGI,HS 578T breast,> 100 µM
same,TGI,UO-31 renal,> 100 µM
same,TGI,EKVX NSCLC,> 100 µM
same,TGI,RXF 393 renal,> 100 µM
same,TGI,OVCAR-4 ovarian,> 100 µM
same,TGI,MDA-MB-435,> 100 µM
same,TGI,UACC-62 melanoma,> 100 µM
same,TGI,SW-620 colon,> 100 µM
same,TGI,NCI-H23 lung,> 100 µM
same,TGI,NCI/ADR-RES ovarian,> 100 µM
same,TGI,ACHN renal,> 100 µM
same,TGI,A498 renal,> 100 µM
same,TGI,OVCAR-5 ovarian,> 100 µM
same,TGI,SN12C renal,> 100 µM
same,TGI,SF-295 CNS,> 100 µM
same,TGI,UACC-257 melanoma,> 100 µM
same,TGI,A549 NSCLC,> 100 µM
same,TGI,MOLT-4 leukemia,> 100 µM
same,TGI,HOP-62 NSCLC,> 100 µM
same,TGI,CCRF-CEM leukemia,75.8 µM
same,TGI,HCT-15 colon,> 100 µM
same,TGI,SK-MEL-5 melanoma,> 100 µM
same,TGI,TK-10 renal,> 100 µM
same,TGI,T-47D breast,> 100 µM
same,TGI,NCI-H226 lung,> 100 µM
same,TGI,MDA-N,> 100 µM
same,TGI,HOP-92 NSCLC,> 100 µM
